{
  "source": "ChEMBL document CHEMBL4028815",
  "about": "“Novel phosphonate analogs of sulforaphane: Synthesis, in vitro and in vivo anticancer activity” (Eur J Med Chem, 2017)",
  "key": {"HL60/MX2": {"tested_on": "HL60/MX2", "assay": "Cytotoxicity against human HL60/MX2 cells after 72 hrs by sulforhodamine B assay", "type": "functional, cell-based", "conditions": "HL60/MX2, 72 h"}, "[1]": {"assay": "Resistance index, ratio of IC50 for human HL60/MX2 cells to IC50 for human HL60 cells", "type": "functional"}, "Mus musculus [2]": {"tested_on": "Mus musculus", "assay": "Toxicity in BALB/c mdb mouse implanted with mouse 4T1 cells assessed as RBC level at 100 umol/kg, ip administered five times weekly measured at 29 day post cell innoculum (reference value: 8.6 +/- 0.9 10^6/uL)", "type": "organism-based", "conditions": "in vivo, 696 h"}, "Mus musculus [3]": {"tested_on": "Mus musculus", "assay": "Toxicity in BALB/c mdb mouse implanted with mouse 4T1 cells assessed as serum PLT level at 100 umol/kg, ip administered five times weekly measured at 29 day post cell innoculum (reference value: 972 +/- 157 10^3/uL)", "type": "organism-based", "conditions": "in vivo, 696 h"}, "Mus musculus [4]": {"tested_on": "Mus musculus", "assay": "Toxicity in BALB/c mdb mouse implanted with mouse 4T1 cells assessed as lung weight at 100 umol/kg, ip administered five times weekly measured at 29 day post cell innoculum (reference value: 0.2 +/- 0.018 g)", "type": "organism-based", "conditions": "in vivo, 696 h"}, "Mus musculus [5]": {"tested_on": "Mus musculus", "assay": "Nephrotoxicity in BALB/c mdb mouse implanted with mouse 4T1 cells assessed as kidney weight at 100 umol/kg, ip administered five times weekly measured at 29 day post cell innoculum (reference value: 0.136 +/- 0.006 g)", "type": "toxicity, organism-based", "conditions": "in vivo, 696 h"}, "LoVo [6]": {"tested_on": "LoVo", "assay": "Induction of apoptosis in human LoVo cells assessed as increase in early apoptotic cells at 15 uM after 24 hrs by APC-Annexin-V/propidium iodide staining based flow cytometric method relative to control", "type": "functional"}, "LoVo [7]": {"tested_on": "LoVo", "assay": "Induction of apoptosis in human LoVo cells assessed as necrotic cells at 15 uM after 24 hrs by APC-Annexin-V/propidium iodide staining based flow cytometric method (reference value: 10%)", "type": "functional"}, "4T1 [8]": {"tested_on": "4T1", "assay": "Anti-tumor activity against mouse 4T1 cells implanted in BALB/c mdb mouse assessed as tumor growth inhibition at 100 umol/kg, ip administered five times weekly measured on day 29 post cell innoculum relative to control", "type": "functional", "conditions": "4T1, ip, 696 h, read-out: TGI"}, "Mus musculus [9]": {"tested_on": "Mus musculus", "assay": "Toxicity in BALB/c mdb mouse implanted with mouse 4T1 cells assessed as hematocrit at 100 umol/kg, ip administered five times weekly measured at 29 day post cell innoculum (reference value: 39.9 +/- 3.7 %)", "type": "organism-based", "conditions": "in vivo, 696 h"}, "Mus musculus [10]": {"tested_on": "Mus musculus", "assay": "Toxicity in BALB/c mdb mouse implanted with mouse 4T1 cells assessed as serum ALT level at 100 umol/kg, ip administered five times weekly measured at 29 day post cell innoculum (reference value: 23.8 +/- 2.2 U/L)", "type": "organism-based", "conditions": "in vivo, 696 h"}, "Mus musculus [11]": {"tested_on": "Mus musculus", "assay": "Toxicity in BALB/c mdb mouse implanted with mouse 4T1 cells assessed as serum AST level at 100 umol/kg, ip administered five times weekly measured at 29 day post cell innoculum (reference value: 136 +/- 10.3 U/L)", "type": "organism-based", "conditions": "in vivo, 696 h"}, "[12]": {"assay": "Induction of apoptosis in human LoVo/DX cells assessed as loss of mitochondrial membrane potential at 15 uM after 24 hrs by JC-1 staining based flow cytometric method relative to control", "type": "functional"}, "Mus musculus [13]": {"tested_on": "Mus musculus", "assay": "Toxicity in BALB/c mdb mouse implanted with mouse 4T1 cells assessed as hemoglobin level at 100 umol/kg, ip administered five times weekly measured at 29 day post cell innoculum (reference value: 15.1 +/- 1.5 g/dl)", "type": "organism-based", "conditions": "in vivo, 696 h"}, "Mus musculus [14]": {"tested_on": "Mus musculus", "assay": "Hepatotoxicity in BALB/c mdb mouse implanted with mouse 4T1 cells assessed as liver weight at 100 umol/kg, ip administered five times weekly measured at 29 day post cell innoculum (reference value: 1.2 +/- 0.13 g)", "type": "toxicity, organism-based", "conditions": "in vivo, 696 h"}, "LoVo/DX [15]": {"tested_on": "LoVo/DX", "assay": "Cell cycle arrest in human LoVo/DX cells assessed as accumulation at G2/M phase at 15 uM after 24 hrs by propidium iodide staining based flow cytometric method", "type": "functional"}, "Mus musculus [16]": {"tested_on": "Mus musculus", "assay": "Toxicity in BALB/c mdb mouse implanted with mouse 4T1 cells assessed as WBC level at 100 umol/kg, ip administered five times weekly measured at 29 day post cell innoculum (reference value: 212.3 +/- 82.8 10^3/uL)", "type": "organism-based", "conditions": "in vivo, 696 h"}, "LoVo [17]": {"tested_on": "LoVo", "assay": "Induction of apoptosis in human LoVo cells assessed as loss of mitochondrial membrane potential at 15 uM after 24 hrs by JC-1 staining based flow cytometric method relative to control", "type": "functional"}, "LoVo [18]": {"tested_on": "LoVo", "assay": "Induction of apoptosis in human LoVo cells assessed as increase in caspase3/7 activity at >15 uM using Ac-DEVD-ACC as substrate pretreated for 24 hrs followed by substrate addition measured for 2 hrs by fluorescence assay", "type": "functional, cell-based"}, "MES-SA": {"tested_on": "MES-SA", "assay": "Cytotoxicity against human MESSA cells after 72 hrs by sulforhodamine B assay", "type": "functional, cell-based"}, "LoVo [19]": {"tested_on": "LoVo", "assay": "Potency index, ratio of benzyl isothiocyanate IC50 to compound IC50 for human LoVo cells", "type": "functional"}, "Mus musculus [20]": {"tested_on": "Mus musculus", "assay": "Toxicity in BALB/c mdb mouse implanted with mouse 4T1 cells assessed as serum creatinine level at 100 umol/kg, ip administered five times weekly measured at 29 day post cell innoculum (reference value: 9.3 +/- 1.2 umol/L)", "type": "organism-based", "conditions": "in vivo, 696 h"}, "LoVo [21]": {"tested_on": "LoVo", "assay": "Cytotoxicity against human LoVo cells after 72 hrs by sulforhodamine B assay", "type": "functional, cell-based"}, "LoVo [22]": {"tested_on": "LoVo", "assay": "Cytotoxicity against human LoVo cells assessed as cell death at >15 uM after 24 hrs", "type": "cell-based"}, "4T1 [23]": {"tested_on": "4T1", "assay": "Anti-tumor activity against mouse 4T1 cells implanted in BALB/c mdb mouse assessed as tumor growth inhibition at 100 umol/kg, ip administered five times weekly measured on day 15 post cell innoculum relative to control", "type": "functional", "conditions": "4T1, ip, 360 h, read-out: TGI"}, "[24]": {"assay": "Cytotoxicity against human LoVo/DX cells after 72 hrs by sulforhodamine B assay", "type": "functional, cell-based"}, "LoVo/DX [25]": {"tested_on": "LoVo/DX", "assay": "Induction of apoptosis in human LoVo/DX cells assessed as increase in caspase3/7 activity at >15 uM using Ac-DEVD-ACC as substrate pretreated for 24 hrs followed by substrate addition measured for 2 hrs by fluorescence assay", "type": "functional, cell-based"}, "MES-SA/Dx5": {"tested_on": "MES-SA/Dx5", "assay": "Cytotoxicity against human MESSA/DX5 cells after 72 hrs by sulforhodamine B assay", "type": "functional, cell-based", "conditions": "MES-SA/Dx5, 72 h"}, "Mus musculus [26]": {"tested_on": "Mus musculus", "assay": "Toxicity in BALB/c mdb mouse implanted with mouse 4T1 cells assessed as serum urea level at 100 umol/kg, ip administered five times weekly measured at 29 day post cell innoculum (reference value: 3.8 +/- […])", "type": "organism-based", "conditions": "in vivo, 696 h"}, "LoVo/DX [27]": {"tested_on": "LoVo/DX", "assay": "Cell cycle arrest in human LoVo/DX cells assessed as decrease in accumulation at G0/G1 phase at 15 uM after 24 hrs by propidium iodide staining based flow cytometric method", "type": "functional"}, "[28]": {"assay": "Induction of apoptosis in human LoVo/DX cells assessed as increase in caspase3/7 activity at 15 uM using Ac-DEVD-ACC as substrate pretreated for 24 hrs followed by substrate addition measured for 2 hrs by fluorescence assay relative to control", "type": "functional"}, "LoVo [29]": {"tested_on": "LoVo", "assay": "Cell cycle arrest in human LoVo cells assessed as decrease in accumulation at G0/G1 phase at 15 uM after 24 hrs by propidium iodide staining based flow cytometric method", "type": "functional"}, "LoVo [30]": {"tested_on": "LoVo", "assay": "Induction of apoptosis in human LoVo cells assessed as increase in caspase3/7 activity at 15 uM using Ac-DEVD-ACC as substrate pretreated for 24 hrs followed by substrate addition measured for 2 hrs by fluorescence assay relative to control", "type": "functional"}, "BALB/3T3": {"tested_on": "BALB/3T3", "assay": "Cytotoxicity against mouse BALB/3T3 cells after 72 hrs by sulforhodamine B assay", "type": "cell-based", "conditions": "BALB/3T3, 72 h"}, "4T1 [31]": {"tested_on": "4T1", "assay": "Cytotoxicity against mouse 4T1 cells after 72 hrs by sulforhodamine B assay", "type": "functional, cell-based", "conditions": "4T1, 72 h"}},
  "note": "pIC50: −log10 of the molar value. Active and inactive are the calls of the source. No cut-off for these calls is given here.",
  "data": [
    {"smiles": "O=P(CCCCCCN=C=S)(Oc1ccccc1)Oc1ccccc1", "values": [
      {"measurement": "pIC50", "setting": "HL60/MX2", "result": 5.48},
      {"measurement": "Ratio IC50", "setting": "[1]", "result": 4.3},
      {"measurement": "Activity", "setting": "Mus musculus [2]", "result": 11.6, "unit": "×10⁶ /uL"},
      {"measurement": "Activity", "setting": "Mus musculus [3]", "result": 855, "unit": "×10³ /uL"},
      {"measurement": "Activity", "setting": "Mus musculus [4]", "result": 0.294, "unit": "g"},
      {"measurement": "Activity", "setting": "Mus musculus [5]", "result": 0.143, "unit": "g"},
      {"measurement": "Activity", "setting": "LoVo [6]", "result": "inactive"},
      {"measurement": "Activity", "setting": "LoVo [7]", "result": 23.3, "unit": "%"},
      {"measurement": "inhibition in vivo at 100 µmol/kg", "setting": "4T1 [8]", "result": -6.4, "unit": "%"},
      {"measurement": "Activity", "setting": "Mus musculus [9]", "result": 57.6, "unit": "%"},
      {"measurement": "Activity", "setting": "Mus musculus [10]", "result": 33.3, "unit": "U/L"},
      {"measurement": "Activity", "setting": "Mus musculus [11]", "result": 153, "unit": "U/L"},
      {"measurement": "Activity", "setting": "[12]", "result": 67, "unit": "%"},
      {"measurement": "Activity", "setting": "Mus musculus [13]", "result": 20.8, "unit": "g/dL"},
      {"measurement": "Activity", "setting": "Mus musculus [14]", "result": 1.32, "unit": "g"},
      {"measurement": "Activity", "setting": "LoVo/DX [15]", "result": "Active"},
      {"measurement": "Activity", "setting": "Mus musculus [16]", "result": 375.9, "unit": "×10³ /uL"},
      {"measurement": "Activity", "setting": "LoVo [17]", "result": 79.3, "unit": "%"},
      {"measurement": "Activity", "setting": "LoVo [18]", "result": "inactive"},
      {"measurement": "pIC50", "setting": "MES-SA", "result": 4.97},
      {"measurement": "Ratio IC50", "setting": "LoVo [19]", "result": 5},
      {"measurement": "Activity", "setting": "Mus musculus [20]", "result": 8.4, "unit": "µmol/L"},
      {"measurement": "pIC50", "setting": "LoVo [21]", "result": 5.54},
      {"measurement": "Activity", "setting": "LoVo [22]", "result": "Toxic"},
      {"measurement": "inhibition in vivo at 100 µmol/kg", "setting": "4T1 [23]", "result": 23.1, "unit": "%"},
      {"measurement": "pIC50", "setting": "[24]", "result": 4.95},
      {"measurement": "Activity", "setting": "LoVo/DX [25]", "result": "inactive"},
      {"measurement": "pIC50", "setting": "MES-SA/Dx5", "result": 5.08},
      {"measurement": "Activity", "setting": "Mus musculus [26]", "result": 4.9, "unit": "mmol/L"},
      {"measurement": "Activity", "setting": "LoVo/DX [27]", "result": "Active"},
      {"measurement": "fold change (FC)", "setting": "[28]", "result": 6.8},
      {"measurement": "Activity", "setting": "LoVo [29]", "result": "Active"},
      {"measurement": "fold change (FC)", "setting": "LoVo [30]", "result": 6.8},
      {"measurement": "pIC50", "setting": "BALB/3T3", "result": 4.94},
      {"measurement": "pIC50", "setting": "4T1 [31]", "result": 5.54}
    ]}
  ]
}
